This is an account of results in patent US20240199624A1, “COMPOUNDS, COMPOSITIONS, AND METHODS” (CHDI Foundation, Inc., priority 2022, published 2024).

Holding throughout (format): biochemical
The target of test [1] is T1, human MutSbeta (Homo sapiens, UniProt P20585+P43246).
T1 construct: Msh2(1-934), Gene ID NP_000242.1; Msh3(1-1137), Gene ID J04810.1
In words: P33 SPA 1.1. The protocol:
P33 SPA: Enzyme human MutSbeta (Msh2(1-934), Gene ID NP_000242.1, Msh3(1-1137), Gene ID J04810.1) and 22 bp biotin-labeled DNA containing a GT-mismatch (purchased from Curia Global, TOP 5′-[…]-3′; BOT 3′-AGTAGCTAGGC - - - CGAAGTCTACC-5′-Biotin) were pre-incubated at equimolar concentration for 15 min at room temperature (“RT”) in assay buffer (25 mM HEPES pH=7.5, 150 mM KCl, 2 mM MgCl2, 2 mM GSH, 0.01% Tween-20). ATP (10 μL, 2× final concentration of γ-[^33P]-ATP (final 0.1 nM; Hartmann Analytic, FF-301) and cold ATP (final 2 μM)) was added to compounds (400 nL spotted as concentration response in 100% DMSO into wells of an OptiPlate) and pre-incubated for 30 min at RT. Then, enzyme with DNA was added (10 μL, 2× final concentration of 7 nM) and incubated for 60 min at 37° C. in a total volume of 20 μL per well. Decay of [^33P] with a half-life of 25.4 days was corrected by increasing the concentration of the labelled nucleotide with the appropriate factor; all steps with radioactive ATP were conducted behind appropriate shielding. Then, 20 μL of a 1:2 mix of ammonium molybdate (20 mg/mL Ammonium molybdate in 2.4 M HCl) and SPA beads (ProteinA SPA beads from Perkin Elmer Cat #RPNQ0019 at 7.5 mg/mL+1% azide) was added per well and incubated at RT for 2 min. Then, 40 μL of 7 M CsCl and 0.1 M citrate was added per well and incubated for 20 h at RT before measuring on the MicroBeta (top read mode, 1 min per well). For full plate processing, all reagents were transferred with a pipettor (Selma, CyBio) apart from the final reagent (CsCl+citrate) which was added with a dispenser (MultiFlo, BioTek). Data analysis during assay development was done with Prism GraphPad.
P33 SPA 11: For the SPA 1.1 assay, the addition of reagents was reversed, i.e. enzyme was first added to the compounds and pre-incubated followed by ATP addition; thus, the assay was aligned with ADP Glo 1.1 reagent addition order. The assay was repeated under similar conditions, and the results are shown below in Table 5B. It is contemplated the solubility of the compounds and/or varying test occasions may account for variability of assay results.

In test [2] the target is T1, human MutSbeta. In words: ADP Glo assay 2.1. Conditions: 10 μM ATP, 7 nM enzyme; buffer with 5 mM GSH, 0.2% Ovalbumin. As for the experimental part: (§1) ADP Glo assay 2.1: Enzyme human MutSbeta (Msh2(1-934), Gene ID NP_000242.1, Msh3(1-1137), Gene ID J04810.1) with 22 bp biotin-labeled DNA containing a GT-mismatch (purchased from Curia Global, TOP 5′-[…]-3′; BOT 3′-AGTAGCTAGGC - - - CGAAGTCTACC-5′-Biotin) was pre-incubated in assay buffer (25 mM HEPES pH=7.5, 150 mM KCl, 5 mM MgCl2, 5 mM GSH, 0.1% Pluronic F-127, 0.2% Ovalbumin) to allow formation of the enzyme-DNA complex. Plates with spotted compounds in serial dilutions in DMSO (80 nL) were filled with ATP (2 μL, 10 μM final concentration) followed by an incubation of 30 min at RT. Then, enzyme was added (2 μL, 7 nM final concentration) and the reaction was allowed to proceed for 60 min at 37° C. After the ATPase reaction, the commercially available “ADP-Glo Reagent” was added (incubate 40 min at RT) to deplete remaining ATP via the activity of […]. Subsequently, the commercially available “Kinase Detection Reagent” converted ADP to ATP via the activity of PEP and Pyruvate kinase. The ATP was then converted into light by Ultra-Glo Luciferase. The obtained luminescence was proportional to the ADP concentration generated during the initial ATPase reaction. The luminescence signal was measured with an Envision reader, raw data were analyzed towards controls (full reaction=0% inhibition; no reaction in absence of enzyme=100% inhibition) and IC50 curves were analyzed with the inhouse software Aplus.
(In general: In ADP-Glo the light output rises with the ADP produced.)

Test [3] has as its target T1, human MutSbeta. In words: ADP Glo assay 2.2. Conditions: as 2.1 but buffer with 2 mM GSH. As for the experimental part: as §1
ADP Glo assay 2.2: A similar protocol was used as in the ADP Glo Assay 2.1 above, except the following assay buffer was used: 25 mM HEPES pH=7.5, 150 mM KCl, 5 mM MgCl2, 2 mM GSH, 0.1% Pluronic F-127, 0.2% Ovalbumin. It is contemplated the solubility of the compounds and/or varying test occasions and/or assay conditions may account for variability of assay results.

Setting [4] is: Table 5A, enzyme first added to compounds, then ATP.
Where [5] appears, read: Table 5B, assay repeated under similar conditions.

T1 sequence (P43246 whole entry): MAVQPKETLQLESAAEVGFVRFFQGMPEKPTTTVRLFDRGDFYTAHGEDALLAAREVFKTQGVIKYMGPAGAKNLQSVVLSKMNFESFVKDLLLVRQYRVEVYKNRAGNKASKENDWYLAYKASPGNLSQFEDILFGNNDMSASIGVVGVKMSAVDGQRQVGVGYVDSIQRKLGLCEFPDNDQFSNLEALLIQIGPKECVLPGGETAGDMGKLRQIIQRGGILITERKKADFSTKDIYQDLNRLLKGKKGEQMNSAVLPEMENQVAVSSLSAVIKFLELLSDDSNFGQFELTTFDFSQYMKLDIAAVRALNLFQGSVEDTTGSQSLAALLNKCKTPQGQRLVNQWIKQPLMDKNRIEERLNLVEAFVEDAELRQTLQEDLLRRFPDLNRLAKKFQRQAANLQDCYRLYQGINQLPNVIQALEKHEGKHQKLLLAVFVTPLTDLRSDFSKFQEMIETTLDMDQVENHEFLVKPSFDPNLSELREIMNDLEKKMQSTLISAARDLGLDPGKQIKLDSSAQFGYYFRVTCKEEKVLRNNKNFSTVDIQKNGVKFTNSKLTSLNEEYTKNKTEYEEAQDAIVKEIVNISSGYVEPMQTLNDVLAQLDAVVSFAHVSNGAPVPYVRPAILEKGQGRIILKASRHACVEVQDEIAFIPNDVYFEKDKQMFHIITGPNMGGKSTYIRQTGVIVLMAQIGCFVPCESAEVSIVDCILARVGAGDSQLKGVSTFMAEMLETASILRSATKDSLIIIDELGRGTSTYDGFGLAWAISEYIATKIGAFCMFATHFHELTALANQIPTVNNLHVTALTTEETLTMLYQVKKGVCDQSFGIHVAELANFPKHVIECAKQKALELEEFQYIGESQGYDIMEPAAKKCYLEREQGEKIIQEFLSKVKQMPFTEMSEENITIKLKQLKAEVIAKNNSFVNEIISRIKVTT
T1 sequence (P20585 whole entry): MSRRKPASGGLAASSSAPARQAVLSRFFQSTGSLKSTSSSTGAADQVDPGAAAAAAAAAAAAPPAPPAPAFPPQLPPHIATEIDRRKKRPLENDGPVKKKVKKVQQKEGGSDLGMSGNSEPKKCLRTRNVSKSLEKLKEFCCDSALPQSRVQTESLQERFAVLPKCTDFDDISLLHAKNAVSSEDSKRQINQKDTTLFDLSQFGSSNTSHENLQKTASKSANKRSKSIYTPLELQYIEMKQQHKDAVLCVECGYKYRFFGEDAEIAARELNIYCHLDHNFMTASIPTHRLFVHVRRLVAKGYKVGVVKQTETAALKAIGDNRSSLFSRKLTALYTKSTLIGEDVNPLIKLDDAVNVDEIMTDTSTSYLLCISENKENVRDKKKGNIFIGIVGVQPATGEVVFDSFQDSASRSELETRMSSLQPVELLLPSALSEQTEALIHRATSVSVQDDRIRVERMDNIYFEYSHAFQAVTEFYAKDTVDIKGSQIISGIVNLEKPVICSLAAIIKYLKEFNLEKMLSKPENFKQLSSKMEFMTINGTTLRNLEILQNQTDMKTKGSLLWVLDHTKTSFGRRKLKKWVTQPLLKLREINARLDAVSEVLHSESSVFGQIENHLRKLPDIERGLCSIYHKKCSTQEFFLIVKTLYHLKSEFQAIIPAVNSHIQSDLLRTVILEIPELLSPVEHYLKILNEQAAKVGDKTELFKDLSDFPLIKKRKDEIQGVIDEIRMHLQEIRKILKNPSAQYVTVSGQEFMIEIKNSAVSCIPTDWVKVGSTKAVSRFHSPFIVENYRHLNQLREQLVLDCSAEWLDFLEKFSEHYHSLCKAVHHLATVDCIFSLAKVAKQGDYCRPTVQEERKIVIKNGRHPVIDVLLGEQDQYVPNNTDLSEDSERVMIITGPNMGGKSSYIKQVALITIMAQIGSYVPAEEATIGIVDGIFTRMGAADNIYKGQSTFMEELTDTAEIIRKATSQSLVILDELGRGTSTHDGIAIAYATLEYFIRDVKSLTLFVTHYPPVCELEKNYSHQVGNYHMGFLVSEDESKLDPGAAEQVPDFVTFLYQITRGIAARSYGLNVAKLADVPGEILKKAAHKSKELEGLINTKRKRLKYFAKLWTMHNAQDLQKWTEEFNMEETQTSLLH

As usually defined, the IC50 is the concentration that inhibits the measured activity by half. On to `CN1CCN(c2nc(Nc3cccc(C4CC4C(=O)O)c3)c3nccnc3n2)CC1` (single isomer, unassigned) [Compound 47], for which the IC50 on human MutSbeta [1] (setting [4]) came out at 59 µM; at human MutSbeta [1] (setting [5]), 56 µM; against human MutSbeta [2], 55 µM; against human MutSbeta [3] it was 38 µM.
For `CN1CCN(c2nc(Nc3cccc(C4CC4C(=O)O)c3)c3nccnc3n2)CC1` (single isomer, unassigned) [Compound 48], in that order: 12 µM, 9 µM, 13 µM and 27 µM.
Turning to `Cc1ccc(Nc2nc(N3CCCN(C)CC3)nc3nccnc23)cc1C` [Compound 23, N-(3,4-dimethylphenyl)-2-(4-methyl-1,4-diazepan-1-yl)pteridin-4-amine], the figures for the half-inhibitory concentration (IC50) against human MutSbeta [1] (setting [4]), at human MutSbeta [1] (setting [5]) and on human MutSbeta [2] were 71 µM, 64 µM and no less than 200 µM, respectively.
For the compound `Cc1ccc(Nc2nc(N3CCN(C(C)C)CC3)nc3nccnc23)cc1C` [Compound 24], the half-inhibitory concentration (IC50) came out at 24 µM on human MutSbeta [1] (setting [4]), 25 µM against human MutSbeta [1] (setting [5]), 37 µM against human MutSbeta [2] and 60 µM at human MutSbeta [3].
For `Cc1cc(CNc2nc(N3CCN(C)CC3)nc3nccnc23)ccc1F` [Compound 25], in that order: 20 µM, 24 µM, 29 µM and 35 µM.
On the same counts, the results for `Cc1cc(CNc2nc(N3CCN(C(C)C)CC3)nc3nccnc23)ccc1F` [Compound 26] are 59 µM, 75 µM, 36 µM and 95 µM.
On the same counts, the results for `Cc1ccc(CNc2nc(N3CCN(C)CC3)nc3nccnc23)cc1C` [Compound 27] are 28 µM, 18 µM, 22 µM and 26 µM.
Regarding `Cc1ccc(CNc2nc(N3CCCN(C)CC3)nc3nccnc23)cc1C` [Compound 28], the IC50 against human MutSbeta [1] (setting [4]) stood at 55 µM; at human MutSbeta [1] (setting [5]), 131 µM; on human MutSbeta [2], 38 µM; against human MutSbeta [3], 82 µM.
As to `Cc1cc(CNc2nc(N3CCCN(C)CC3)nc3nccnc23)ccc1F` [Compound 29], the half-inhibitory concentration (IC50) is 120 µM against human MutSbeta [1] (setting [4]), 61 µM against human MutSbeta [1] (setting [5]) and no less than 200 µM at human MutSbeta [2].
Turning to `COc1ccc(Nc2nc(N3CCN(C)CC3)nc3nccnc23)cc1Cl` [Compound 30], the IC50 turned out to be 23 µM at human MutSbeta [1] (setting [4]), 28 µM on human MutSbeta [1] (setting [5]), 23 µM on human MutSbeta [2] and 25 µM against human MutSbeta [3].
For the compound `Cc1ccc(Nc2nc(N3CCN(C)[C@@H](C)C3)nc3nccnc23)cc1C` [Compound 31], the IC50 on human MutSbeta [1] (setting [4]) stood at 25 µM; at human MutSbeta [1] (setting [5]), 45 µM; at human MutSbeta [2] it was 19 µM; on human MutSbeta [3], 41 µM.
With `Cc1ccc(Oc2nc(N3CCN(C)CC3)nc3nccnc23)cc1C` [Compound 32], the concentration for half-maximal inhibition (IC50) at human MutSbeta [1] (setting [4]) is 118 µM; against human MutSbeta [1] (setting [5]) it was 47 µM; at human MutSbeta [2], no less than 200 µM.
As to `CN1CCN(c2nc(Nc3cccc(Cl)c3)c3nccnc3n2)CC1` [Compound 33, N-(3-chlorophenyl)-2-(4-methylpiperazin-1-yl)pteridin-4-amine], the IC50 worked out at 44 µM on human MutSbeta [1] (setting [4]), 34 µM against human MutSbeta [1] (setting [5]), 35 µM against human MutSbeta [2] and 43 µM against human MutSbeta [3].
`CN1CCN(c2nc(Nc3cccc(F)c3)c3nccnc3n2)CC1` [Compound 34]: the half-maximal inhibitory concentration (IC50) at human MutSbeta [1] (setting [4]) is 43 µM; against human MutSbeta [1] (setting [5]) it was 90 µM; against human MutSbeta [2], no less than 200 µM.
With `CCC(=O)Nc1cccc(Nc2nc(N3CCCN(C)CC3)nc3nccnc23)c1` [Compound 35], the IC50 at human MutSbeta [1] (setting [4]) was 80 µM; at human MutSbeta [1] (setting [5]), 55 µM; against human MutSbeta [2], no less than 200 µM.
As for `CCC(=O)Nc1cccc(Nc2nc(N3CCN(C)CC3)nc3nccnc23)c1` [Compound 37], the IC50 against human MutSbeta [1] (setting [4]) was determined as 34 µM; on human MutSbeta [1] (setting [5]) it was 119 µM; against human MutSbeta [2] it was 71 µM; against human MutSbeta [3], 97 µM.
For `Cc1cnc2nc(N3CCN(C)CC3)nc(Nc3ccc(C)c(C)c3)c2n1` [Compound 38, N-(3,4-dimethylphenyl)-6-methyl-2-(4-methylpiperazin-1-yl)pteridin-4-amine], in that order: 19 µM, 9.5 µM, 13 µM and 10 µM.
Consider `Cc1cccc(Nc2nc(N3CCN(C)CC3)nc3nccnc23)c1C` [Compound 39, N-(2,3-dimethylphenyl)-2-(4-methylpiperazin-1-yl)pteridin-4-amine], for which the figures for the IC50 on human MutSbeta [1] (setting [4]), against human MutSbeta [1] (setting [5]) and against human MutSbeta [2] were 158 µM, 36 µM and no less than 200 µM, respectively.
For the compound `COc1cccc(Nc2nc(N3CCN(C)CC3)nc3nccnc23)c1` [Compound 40], the 50% inhibitory concentration (IC50) against human MutSbeta [1] (setting [4]) stood at 43 µM; on human MutSbeta [1] (setting [5]), 61 µM; against human MutSbeta [2], 16 µM; at human MutSbeta [3], 34 µM.
In the case of `Cc1cc(Nc2nc(N3CCN(C)CC3)nc3nccnc23)ccc1C(N)=O` [Compound 41], the IC50 at human MutSbeta [1] (setting [5]) was 50 µM; against human MutSbeta [2], 28 µM; at human MutSbeta [3], 50 µM.
With `CN1CCN(c2nc(NCc3cccc(S(C)(=O)=O)c3)c3nccnc3n2)CC1` [Compound 42], the half-inhibitory concentration (IC50) against human MutSbeta [1] (setting [5]) is 108 µM; on human MutSbeta [2], no less than 200 µM; against human MutSbeta [3] it was 119 µM.
Regarding `Cc1ccc(Nc2nc(N3CCN(C)CC3)nc3nccnc23)cc1S(N)(=O)=O` [Compound 43], the 50% inhibitory concentration (IC50) was found to be 59 µM at human MutSbeta [1] (setting [5]) and 106 µM on human MutSbeta [3].
`CN1CCN(c2nc(NCc3cccc(S(N)(=O)=O)c3)c3nccnc3n2)CC1` [Compound 44]: the IC50 on human MutSbeta [1] (setting [5]) was found to be 71 µM; against human MutSbeta [3], 88 µM.
`Cc1ccc(Nc2nc(N3CCN(C)CC3)nc3nccnc23)cc1C(N)=O` [Compound 45]: the IC50 is 38 µM on human MutSbeta [1] (setting [4]), 84 µM on human MutSbeta [1] (setting [5]), 55 µM on human MutSbeta [2] and 76 µM against human MutSbeta [3].
As for `CC(=O)Nc1cccc(CNc2nc(N3CCN(C)CC3)nc3nccnc23)c1` [Compound 46], the IC50 at human MutSbeta [1] (setting [4]) came to 104 µM; on human MutSbeta [1] (setting [5]) it was 120 µM; against human MutSbeta [2] it was 38 µM; at human MutSbeta [3], 53 µM.
